Measured values as given in patent US10561638B2, “Methods for treating dependence” (Biotie Therapies, Inc., priority 2007, dated 2020).

System: tissue norepinephrine and dopamine levels
Assay: Tissue catecholamines in beagle dogs, 10, 30, 60 mg/kg/day for 4.5 days
Type: in vivo
Protocol: This study was performed to determine the dopamine and norepinephrine concentrations in kidney medulla and kidney cortex from dogs dosed with nepicastat. Adult male beagle dogs were randomly assigned to four groups of 8 dogs per group and dosed by oral administration with nepicastat. Nepicastat was delivered in doses of 5, 15 and 30 mg/kg placed in single capsules. Vehicle was an empty capsule. Each dog received 2 doses daily, morning and afternoon (8-10 hours apart) for four days. On the fifth day, each dog received a single dose in the morning and the dogs were euthanized six hours after the last dose. Samples of kidney medulla and kidney cortex were rapidly harvested, weighed, placed in cold 0.4 M perchloric acid, frozen in liquid nitrogen and stored at −70° C.
To quantitate concentrations of norepinephrine (NE) and dopamine (D), each tissue was homogenized by brief sonication in 0.4 M perchloric acid. After sonication, the homogenates were centrifuged at 13,000 rpm in a microfuge for 30 minutes at 4° C. An aliquot of each supernatant was removed and spiked with 3,4-dihydroxybenzylamine (DHBA) as internal standard. The extract from each sample was subjected to HPLC separation using electrochemical detection. The method has a quantitation limit of 2.0 ng/mL and a linear range of 2.0 ng/mL to 400 ng/mL for each analyte.
Thirty-two male beagle dogs, weighing 10-12 kg, were randomly assigned to one of the following 4 treatment groups (n=8 per group): nepicastat at 0 mg/kg/day (placebo), 10 mg/kg/day (5 mg/kg b.i.d.), 30 mg/kg (15 mg/kg b.i.d.), or 60 mg/kg/day (30 mg/kg b.i.d.). Dog numbers 1-16 were assigned as dose group A and dog numbers 17-32 as dose group B. The terminal surgery for tissue harvest was performed over 2 days with 16 animals studied per day. Two or 3 days before the first compound administration each dog was weighed and skin regions overlying both cephalic, saphenous and jugular veins were shaved. Dosing consisted of oral administration of one capsule with the second given 8-10 hr later. Dogs were dosed as scheduled on days 1-3. On day 4, prior to the AM dose, 3 ml of blood were obtained from a jugular vein for determination of baseline plasma compound levels. The dog was then administered the AM dose, and at 1, 2, 4 and 8 hr following the dose additional 3 ml blood samples were collected for determination of plasma compound levels. Blood samples were put into tubes containing heparin, centrifuged at 4° C. and stored at −20° C. until analysis. The PM dose was then administered as scheduled. The AM dose was administered as scheduled on the days of surgery. Approximately 6 hr after the AM dose, a final 3 ml blood sample was taken from the jugular vein for determination of plasma compound levels. The dog was then anesthetized with pentobarbital Na (˜40 mg/kg), given i.v. in a cephalic or saphenous vein, and delivered to the necropsy room where an additional dose of pentobarbital Na was given (˜80 mg/kg, iv). The left ventricle, renal artery, kidney, renal medulla, renal cortex and cerebral cortex were then rapidly harvested, weighed, put into 2 ml iced 0.4M perchloric acid, frozen in liquid nitrogen and stored at −70° C. until analysis for catecholamines by HPLC using electrochemical detection. All tissue samples were divided into 2 portions, the second of which were immediately frozen in liquid nitrogen and stored at −70° C. for determination of tissue compound levels. A third transmural sample taken from the left ventricle was immediately frozen in liquid nitrogen and stored at −70° C. for use in receptor binding studies.
Ventricles were homogenized in 50 mM Tris-HCl, 5 mM Na2EDTA buffer (pH 7.4 at 4° C.) using a Polytron P-10 tissue disrupter (setting 10, 2×15 second bursts). Homogenates were centrifuged at 500×g for 10 minutes and the supernatants stored on ice. The pellets were washed by resuspension and centrifugation at 500×g and the supernatants combined. […]

[1] = renal medulla, 60 mg/kg/day, marginal (0.05<p<0.10)

Cl.NCc1c[nH]c(=S)n1[C@H]1CCc2c(F)cc(F)cc2C1 [nepicastat, (S)-5-Aminomethyl-1-(5,7-difluoro-1,2,3,4-tetrahydronaphth-2-yl)-2,3-dihydro-2-thioxo-1H-imidazole hydrochloride]
increase in dopamine (cerebral cortex, 10 mg/kg/day): 632%
increase in dopamine/norepinephrine ratio (cerebral cortex, 10 mg/kg/day): 531%
decrease in norepinephrine (cerebral cortex, 30 mg/kg/day): 63%
increase in dopamine/norepinephrine ratio (cerebral cortex, 30 mg/kg/day): 86%
increase in dopamine (cerebral cortex, 30 mg/kg/day, marginal (0.05<p<0.10)): 174%
increase in dopamine (cerebral cortex, 60 mg/kg/day): 411%
increase in dopamine/norepinephrine ratio (cerebral cortex, 60 mg/kg/day): 612%
norepinephrine levels vs placebo (cerebral cortex, 10 and 60 mg/kg/day): not significantly (p>0.01) affected
dose at which the plateau in DBH inhibition response begins (heart, renal artery and kidney): 10 mg/kg/day
decrease in norepinephrine (left ventricle, 10 mg/kg/day): 85%
increase in dopamine/norepinephrine ratio (left ventricle, 10 mg/kg/day): 852%
decrease in norepinephrine (left ventricle, 30 mg/kg/day): 58%
increase in dopamine/norepinephrine ratio (left ventricle, 30 mg/kg/day): 279%
decrease in norepinephrine (left ventricle, 60 mg/kg/day): 79%
increase in dopamine/norepinephrine ratio (left ventricle, 60 mg/kg/day): 607%
dopamine levels vs placebo (left ventricle, 10, 30 and 60 mg/kg/day): No significant changes
decrease in norepinephrine (renal artery, 10 mg/kg/day): 86%
increase in dopamine (renal artery, 10 mg/kg/day): 180%
increase in dopamine/norepinephrine ratio (renal artery, 10 mg/kg/day): 1711%
decrease in norepinephrine (renal artery, 30 mg/kg/day): 81%
increase in dopamine (renal artery, 30 mg/kg/day): 273%
increase in dopamine/norepinephrine ratio (renal artery, 30 mg/kg/day): 1767%
decrease in norepinephrine (renal artery, 60 mg/kg/day): 85%
increase in dopamine (renal artery, 60 mg/kg/day): 268%
increase in dopamine/norepinephrine ratio (renal artery, 60 mg/kg/day): 1944%
decrease in norepinephrine (renal cortex, 10 mg/kg/day): 86%
increase in dopamine (renal cortex, 10 mg/kg/day): 156%
increase in dopamine/norepinephrine ratio (renal cortex, 10 mg/kg/day): 1653%
decrease in norepinephrine (renal cortex, 30 mg/kg/day): 66%
increase in dopamine (renal cortex, 30 mg/kg/day): 502%
increase in dopamine/norepinephrine ratio (renal cortex, 30 mg/kg/day): 1440%
decrease in norepinephrine (renal cortex, 60 mg/kg/day): 85%
increase in dopamine (renal cortex, 60 mg/kg/day): 208%
increase in dopamine/norepinephrine ratio (renal cortex, 60 mg/kg/day): 1693%
decrease in norepinephrine (renal medulla, 10 mg/kg/day): 72%
increase in dopamine/norepinephrine ratio (renal medulla, 10 mg/kg/day): 555%
increase in dopamine (renal medulla, 10 mg/kg/day, marginal (0.05<p<0.10)): 150%
increase in dopamine (renal medulla, 30 mg/kg/day): 522%
increase in dopamine/norepinephrine ratio (renal medulla, 30 mg/kg/day): 636%
increase in dopamine/norepinephrine ratio (renal medulla, 60 mg/kg/day): 677%
decrease in norepinephrine [1]: 69%
increase in dopamine [1]: 156%
